Laboratory results reported in ChEMBL document CHEMBL1201862, “PubChem BioAssay data set” (2004).
Calls of active or inactive are those of the source.

Assays:
[1] = THP-1 cell cytotoxicity, dose response, cytotoxicity control for non-replicating M. tuberculosis project (AID 489025); assay type: functional
[2] = cells; assay type: functional, cell-based
[3] = biological target: T1, Trace amine-associated receptor 1 (Homo sapiens, UniProt Q96RJ0); assay: Fluorescence-based cell-based high throughput dose response assay to identify agonists of the human trace amine associated receptor 1 (TAAR1).; assay type: functional
T1 sequence (Q96RJ0 whole entry): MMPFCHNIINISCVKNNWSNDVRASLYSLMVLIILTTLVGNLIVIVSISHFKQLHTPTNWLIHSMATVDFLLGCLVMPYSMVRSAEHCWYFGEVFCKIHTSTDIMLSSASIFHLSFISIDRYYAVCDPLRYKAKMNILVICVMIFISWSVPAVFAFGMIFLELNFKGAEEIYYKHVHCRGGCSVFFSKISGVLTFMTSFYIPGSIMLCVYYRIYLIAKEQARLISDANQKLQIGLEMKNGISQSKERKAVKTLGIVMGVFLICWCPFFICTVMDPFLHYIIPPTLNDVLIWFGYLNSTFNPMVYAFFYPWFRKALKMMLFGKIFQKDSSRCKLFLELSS

[4] = biological target: T1, Trace amine-associated receptor 1; assay: Counterscreen for agonists of the human trace amine associated receptor 1 (hTAAR1): Fluorescence-based cell-based high throughput dose response assay to identify hTAAR1 agonist that also desensitize TAAR1 receptor response.; assay type: functional
[5] = cells; assay type: functional, cell-based; remark: listed apart in the source
[6] = biological target: Mu-type opioid receptor (Homo sapiens, UniProt P35372); assay type: functional, cell-based;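 also: U2OS cells with beta-arrestin recruitment to OPRM1 by beta-gal complementation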
Sequence of Mu-type opioid receptor (P35372 whole entry): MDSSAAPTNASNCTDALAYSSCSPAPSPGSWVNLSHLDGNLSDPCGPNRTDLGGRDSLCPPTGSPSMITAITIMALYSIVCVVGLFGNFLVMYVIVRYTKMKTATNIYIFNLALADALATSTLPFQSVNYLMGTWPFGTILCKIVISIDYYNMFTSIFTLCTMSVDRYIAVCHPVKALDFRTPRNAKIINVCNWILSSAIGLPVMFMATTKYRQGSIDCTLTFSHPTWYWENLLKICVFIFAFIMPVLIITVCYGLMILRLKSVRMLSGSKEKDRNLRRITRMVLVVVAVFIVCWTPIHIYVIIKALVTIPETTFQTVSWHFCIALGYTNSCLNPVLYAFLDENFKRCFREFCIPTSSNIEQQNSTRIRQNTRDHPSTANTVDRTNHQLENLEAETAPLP

[7] = biological target: 5-hydroxytryptamine receptor 2A (Mus musculus, UniProt P35363); assay type: functional, cell-based;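 also: CHO-K1 cells with tagged receptor and beta-arrestin; agonist potency measured as compound-induced activation of the receptor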
Sequence of 5-hydroxytryptamine receptor 2A (P35363 whole entry): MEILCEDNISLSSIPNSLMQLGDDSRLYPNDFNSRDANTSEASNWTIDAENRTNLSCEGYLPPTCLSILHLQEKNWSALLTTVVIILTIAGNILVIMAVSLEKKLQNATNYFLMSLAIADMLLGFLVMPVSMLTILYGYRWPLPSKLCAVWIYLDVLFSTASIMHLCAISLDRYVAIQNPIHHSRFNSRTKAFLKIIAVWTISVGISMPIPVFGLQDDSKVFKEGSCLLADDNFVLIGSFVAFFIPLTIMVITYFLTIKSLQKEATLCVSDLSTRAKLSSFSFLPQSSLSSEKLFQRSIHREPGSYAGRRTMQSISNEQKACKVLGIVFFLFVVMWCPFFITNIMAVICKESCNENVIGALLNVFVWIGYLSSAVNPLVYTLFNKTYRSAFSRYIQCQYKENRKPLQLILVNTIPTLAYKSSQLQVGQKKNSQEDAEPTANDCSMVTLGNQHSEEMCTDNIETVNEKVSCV

[8] = Luminescence Cell-Based Dose Confirmation HTS to Identify Activators of 5'UTR Stem-Loop Driven Alpha-Synuclein mRNA Translation in H4 Neuroglioblastoma Cells. [Related pubchem assays: 1829 (Project Summary), 1814 (Primary HTS)]; assay type: functional
[9] = Luminescence Cell-Based Dose Response HTS to Identify Activators of Luciferase Translation or Activity in H4 […] Cells. [Related pubchem assays: 1829 (Project Summary), 1814 (Primary HTS)]; assay type: functional
[10] = system: H4; assay: Luminescence Cell-Based Dose Response HTS to Identify Activators of 5'UTR Stem-Loop Driven Prion Protein mRNA Translation in H4 Neuroglioblastoma Cells. [Related pubchem assays: 1829 (Project Summary), 1814 (Primary HTS)]; assay type: functional; details: Homo sapiens
[11] = biological target: Glucose-6-phosphate 1-dehydrogenase (Homo sapiens, UniProt P11413); assay: inhibition of Homo sapiens G6PD, dose series – biochemical, fluorescence, selectivity assay for P. falciparum G6PD inhibitor project, dose response (AID 504792); assay type: functional
Sequence of Glucose-6-phosphate 1-dehydrogenase (P11413 whole entry): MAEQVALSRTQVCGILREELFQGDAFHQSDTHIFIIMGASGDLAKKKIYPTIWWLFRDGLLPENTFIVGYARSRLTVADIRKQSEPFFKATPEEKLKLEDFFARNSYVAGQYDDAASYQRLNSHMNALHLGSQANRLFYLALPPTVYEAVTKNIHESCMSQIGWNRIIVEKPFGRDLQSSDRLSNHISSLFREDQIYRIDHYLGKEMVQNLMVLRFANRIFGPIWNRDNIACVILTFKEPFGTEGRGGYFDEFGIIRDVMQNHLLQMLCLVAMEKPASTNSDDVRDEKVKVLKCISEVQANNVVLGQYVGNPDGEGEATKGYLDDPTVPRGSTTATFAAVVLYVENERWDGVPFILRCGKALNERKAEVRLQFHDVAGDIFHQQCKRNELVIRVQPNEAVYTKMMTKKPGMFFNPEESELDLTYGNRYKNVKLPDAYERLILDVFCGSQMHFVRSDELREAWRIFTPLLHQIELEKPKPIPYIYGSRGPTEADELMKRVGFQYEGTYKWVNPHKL

[12] = biological target: Genome polyprotein (dengue virus type 2, UniProt P29990); assay: flavivirus cap methylation enzyme inhibition – biochemical, confirmation dose response, primary screen (AID 588689); assay type: functional
Sequence of Genome polyprotein (P29990 2492-3391 limits assumed): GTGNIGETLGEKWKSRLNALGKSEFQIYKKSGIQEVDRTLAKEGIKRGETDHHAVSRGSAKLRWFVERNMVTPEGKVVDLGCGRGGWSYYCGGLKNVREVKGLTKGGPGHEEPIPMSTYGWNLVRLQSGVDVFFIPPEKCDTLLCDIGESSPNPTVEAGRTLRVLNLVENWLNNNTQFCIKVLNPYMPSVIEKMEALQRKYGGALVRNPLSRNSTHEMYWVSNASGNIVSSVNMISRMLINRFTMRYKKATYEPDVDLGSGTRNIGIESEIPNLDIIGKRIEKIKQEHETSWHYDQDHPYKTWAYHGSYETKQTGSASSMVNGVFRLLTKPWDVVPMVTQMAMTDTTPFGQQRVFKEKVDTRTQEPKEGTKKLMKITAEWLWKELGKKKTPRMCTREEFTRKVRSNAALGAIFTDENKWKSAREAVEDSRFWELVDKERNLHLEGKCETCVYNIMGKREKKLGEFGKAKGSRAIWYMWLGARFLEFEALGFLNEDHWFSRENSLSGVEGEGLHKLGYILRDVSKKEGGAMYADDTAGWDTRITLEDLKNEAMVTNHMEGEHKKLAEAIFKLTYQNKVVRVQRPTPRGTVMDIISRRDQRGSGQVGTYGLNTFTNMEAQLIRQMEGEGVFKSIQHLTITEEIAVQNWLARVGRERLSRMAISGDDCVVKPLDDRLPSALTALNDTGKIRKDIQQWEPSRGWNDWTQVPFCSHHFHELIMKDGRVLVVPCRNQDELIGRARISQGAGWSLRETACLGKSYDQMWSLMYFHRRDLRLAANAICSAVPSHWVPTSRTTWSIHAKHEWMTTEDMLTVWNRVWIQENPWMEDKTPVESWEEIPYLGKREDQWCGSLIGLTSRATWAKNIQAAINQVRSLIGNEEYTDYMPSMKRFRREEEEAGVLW

[13] = biological target: Photoreceptor-specific nuclear receptor (Homo sapiens, UniProt Q9Y5X4); assay type: functional, cell-based;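 also: CHO-S cells with Gal4-NCOR and VP16-NR2E3 two-hybrid luciferase reporter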
Sequence of Photoreceptor-specific nuclear receptor (Q9Y5X4 whole entry, the tested form may be a part): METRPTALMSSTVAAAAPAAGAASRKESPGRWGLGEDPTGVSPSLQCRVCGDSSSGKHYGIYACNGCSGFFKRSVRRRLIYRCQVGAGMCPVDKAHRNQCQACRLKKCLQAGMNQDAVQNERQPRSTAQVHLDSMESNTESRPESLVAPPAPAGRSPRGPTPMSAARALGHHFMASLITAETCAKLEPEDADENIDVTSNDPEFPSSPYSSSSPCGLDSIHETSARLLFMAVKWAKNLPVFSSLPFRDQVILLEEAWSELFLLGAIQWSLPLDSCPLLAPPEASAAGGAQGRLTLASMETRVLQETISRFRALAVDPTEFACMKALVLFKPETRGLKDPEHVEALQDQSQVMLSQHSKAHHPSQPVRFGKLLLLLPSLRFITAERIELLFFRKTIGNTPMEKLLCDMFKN

[14] = biological target: T2, Carboxy-terminal domain RNA polymerase II polypeptide A small phosphatase 1 (Homo sapiens, UniProt Q9GZU7); assay: CTDSP1 inhibitors, concentration-response, biochemical, absorbance readout, ultra-high-throughput screen actives (AID 540297); assay type: functional
T2 sequence (Q9GZU7 whole entry): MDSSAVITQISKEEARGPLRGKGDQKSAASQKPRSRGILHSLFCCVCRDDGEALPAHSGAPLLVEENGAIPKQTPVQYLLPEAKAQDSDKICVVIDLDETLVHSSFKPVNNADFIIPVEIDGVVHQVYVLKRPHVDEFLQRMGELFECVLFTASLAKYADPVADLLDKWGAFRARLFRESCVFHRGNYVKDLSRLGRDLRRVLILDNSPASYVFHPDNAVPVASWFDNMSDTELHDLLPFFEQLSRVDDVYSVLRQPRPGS

[15] = biological target: DNA (cytosine-5)-methyltransferase 1 (Homo sapiens, UniProt P26358); assay: inhibition of DNA methylation by DNMT1 – biochemical, fluorescent molecular beacon, confirmation (AID 602386); assay type: functional
Sequence of DNA (cytosine-5)-methyltransferase 1 (P26358 whole entry): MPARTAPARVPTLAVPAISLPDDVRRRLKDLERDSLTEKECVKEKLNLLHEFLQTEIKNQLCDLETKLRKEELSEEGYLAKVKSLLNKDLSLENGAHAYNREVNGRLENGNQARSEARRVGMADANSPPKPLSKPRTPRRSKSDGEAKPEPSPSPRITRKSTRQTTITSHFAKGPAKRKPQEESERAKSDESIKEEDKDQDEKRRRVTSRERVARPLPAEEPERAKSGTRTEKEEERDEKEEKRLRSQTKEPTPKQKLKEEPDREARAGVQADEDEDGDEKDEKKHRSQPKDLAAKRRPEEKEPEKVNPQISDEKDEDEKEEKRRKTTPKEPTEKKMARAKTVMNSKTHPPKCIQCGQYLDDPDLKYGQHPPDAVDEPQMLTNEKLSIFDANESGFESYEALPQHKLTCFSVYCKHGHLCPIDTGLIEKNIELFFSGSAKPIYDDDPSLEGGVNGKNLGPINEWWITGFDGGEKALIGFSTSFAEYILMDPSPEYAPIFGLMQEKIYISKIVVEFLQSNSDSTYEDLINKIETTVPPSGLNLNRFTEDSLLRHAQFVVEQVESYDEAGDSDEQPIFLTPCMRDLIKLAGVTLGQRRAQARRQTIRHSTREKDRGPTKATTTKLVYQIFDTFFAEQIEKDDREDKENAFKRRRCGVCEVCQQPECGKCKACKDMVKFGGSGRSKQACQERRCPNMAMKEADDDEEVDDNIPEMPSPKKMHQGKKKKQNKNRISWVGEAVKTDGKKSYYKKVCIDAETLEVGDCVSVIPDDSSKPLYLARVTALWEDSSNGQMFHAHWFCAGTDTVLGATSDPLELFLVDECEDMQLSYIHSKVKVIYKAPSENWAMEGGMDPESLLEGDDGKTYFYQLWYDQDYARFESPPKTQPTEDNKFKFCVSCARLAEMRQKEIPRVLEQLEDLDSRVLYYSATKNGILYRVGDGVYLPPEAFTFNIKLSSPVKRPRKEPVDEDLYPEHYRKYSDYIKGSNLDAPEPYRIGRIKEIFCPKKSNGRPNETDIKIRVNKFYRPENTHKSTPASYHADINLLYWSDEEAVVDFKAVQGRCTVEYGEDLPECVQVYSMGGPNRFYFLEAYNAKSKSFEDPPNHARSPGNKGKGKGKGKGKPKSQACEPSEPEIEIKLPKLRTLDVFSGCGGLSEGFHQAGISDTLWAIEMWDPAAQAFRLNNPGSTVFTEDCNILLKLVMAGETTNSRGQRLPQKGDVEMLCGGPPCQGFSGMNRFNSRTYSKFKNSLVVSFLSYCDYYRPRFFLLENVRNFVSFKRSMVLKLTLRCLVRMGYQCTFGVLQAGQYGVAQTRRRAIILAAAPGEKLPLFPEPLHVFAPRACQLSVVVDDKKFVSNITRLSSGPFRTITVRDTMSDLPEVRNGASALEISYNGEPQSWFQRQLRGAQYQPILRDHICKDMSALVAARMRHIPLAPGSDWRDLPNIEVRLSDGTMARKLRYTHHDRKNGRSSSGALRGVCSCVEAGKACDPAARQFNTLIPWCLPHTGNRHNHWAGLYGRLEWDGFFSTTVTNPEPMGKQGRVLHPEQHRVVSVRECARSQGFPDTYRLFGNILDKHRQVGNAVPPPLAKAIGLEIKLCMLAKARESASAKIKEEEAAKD

[16] = viability loss in THP-1 monocytes – THP-1 cells, cytotoxicity control for Vif-APOBEC3G degradation inhibitor project, dose response (AID 1117359); assay type: functional; details: THP-1
[17] = Counterscreen for […] of the human trace amine associated receptor 1 (TAAR1): Fluorescence-based cell-based high throughput dose response assay to identify nonselective Ga16 agonists.; assay type: functional
[18] = biological target: T1, Trace amine-associated receptor 1; assay: Fluorescence-based cell-based high throughput dose response assay to identify antagonists of the human trace amine associated receptor 1 (TAAR1).; assay type: functional
[19] = Counterscreen for antagonists of the human trace amine associated receptor 1 (hTAAR1): Fluorescence-based cell-based high throughput dose response assay to identify nonselective Ga16 antagonists.; assay type: functional
[20] = biological target: T1, Trace amine-associated receptor 1; assay: Counterscreen for antagonists of the human trace amine associated receptor 1 (hTAAR1): Fluorescence-based cell-based high throughput dose response assay to identify TAAR1 Agonists.; assay type: functional

## COc1cc(C(=O)CCN2CCC(c3ccccc3)C2)cc(OC)c1OC (stereo not given)
[1]
  CC50: > 40 µM (active)
[2]
  IC50: > 29.9 µM (inactive)
[3]
  EC50: 0.242 µM (active)
[4]
  IC50: 2.35 µM (active)
[5]
  EC50: > 29.9 µM (inactive)

## COc1cccc(NC(=O)c2ccc(CN3CCN(c4ccccc4)CC3)cc2)c1
[6]
  EC50: 92.5 µM (inactive)
[7]
  EC50: 4.28 µM (active)

## CC(C)c1cc2c(c(O)c1O)[C@@]13CCCC(C)(C)C1CC2OC3=O (stereo not given in full)
[8]
  EC50: 71.2 µM (active)
[9]
  EC50: > 60 µM (not active)
[10]
  EC50: > 120 µM (not active)
[11]
  IC50: > 80 µM (inactive)
[12]
  IC50: 84.4 µM (active)
[13]
  IC50: 2.59 µM (active)

## COc1ccc(NC(=O)CN(C)C(=O)c2cc(-c3ccco3)nc3ccccc23)cc1
[14]
  IC50: 2.55 µM (active)
[15]
  IC50: 6.24 µM (active)
[16]
  CC50: > 40 µM (active)

## COc1cc(NC(=O)c2cc3ccccc3o2)c(OC)cc1Cl
[17]
  EC50: > 29.9 µM (inactive)
[18]
  IC50: 3.98 µM (active)
[19]
  IC50: > 29.9 µM (inactive)
[20]
  EC50: > 29.9 µM (inactive)
